Test results reported in patent US20150329498A1, “IRAK INHIBITORS AND USES THEREOF” (Nimbus Iris, Inc., priority 2014, published 2015).

Tests used:
[1] = system: IFNα production in human whole blood; test: R848 induced IFNα production in human whole blood; assay type: cell-based; details: 0.2 uM R848, 20 hours
Procedure: (§1) Compounds of the present invention were also studied in in vitro cytokine production assays. Exemplary protocols follow.
(§2) Human whole blood and hWBC assays: Human whole blood was diluted by combining whole blood with no serum RPMI medium at a ratio of 1:1. 180 ul/well of the diluted whole blood/well was added to a 96 well plate. For WBC assay 100,000 cells/well were seeded in a 96-well plate with a volume of 100 ul/well. To make the compound master plate 9 ul of 30 mM compound solution was added into the wells in the assigned rows, then serial solutions with 4x dilutions were made in DMSO. That is, 9 uL of 100% DMSO were added into each of the rest wells and 3 uL of compound solution was taken from the one-step higher concentration solution and mixed well with the DMSO. An intermediate compound dilution plate was made by mixing 4 uL of the compound solution from the compound master plate with 196 uL of no serum RPMI medium. hWBC or human whole blood was treated for 0.5 hour by adding 20 uL/well of the compound and the control solutions from the intermediate compound plate to the cell plate. 80 uL/well or 20 uL/well of stimulant were then added to the human whole blood or hWBC respectively. […] The supernatants were then collected and cytokine levels were measured with ELISA for TNFα (R&D Systems, #DY210) and IFNα (R&D Systems, #41100-2) per manufacturer's instruction.

[2] = biological target: T1, IRAK4 (Homo sapiens, UniProt Q9NWZ3); test: IRAK-4 activity inhibition assay (Caliper); assay type: biochemical; details: 3.5 nM IRAK4, 1.5 μM Peptide 8, 37 μM ATP
T1 construct: purchased CARNA Bioscience 09-145
T1 sequence (Q9NWZ3 1-460): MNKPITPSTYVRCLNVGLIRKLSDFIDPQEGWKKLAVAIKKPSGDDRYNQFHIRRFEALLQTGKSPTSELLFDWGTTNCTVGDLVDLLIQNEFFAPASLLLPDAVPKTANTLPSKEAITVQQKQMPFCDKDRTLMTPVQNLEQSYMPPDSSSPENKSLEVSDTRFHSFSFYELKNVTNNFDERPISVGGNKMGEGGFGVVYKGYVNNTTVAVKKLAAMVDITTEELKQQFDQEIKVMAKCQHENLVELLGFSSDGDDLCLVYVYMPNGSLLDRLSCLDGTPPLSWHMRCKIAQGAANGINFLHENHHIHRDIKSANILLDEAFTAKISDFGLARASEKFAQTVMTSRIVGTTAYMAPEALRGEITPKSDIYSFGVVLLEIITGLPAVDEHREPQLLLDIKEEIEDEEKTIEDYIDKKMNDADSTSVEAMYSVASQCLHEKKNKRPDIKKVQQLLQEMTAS
Outline: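 Mobility-shift (Caliper) assay with 3.5 nM IRAK4 in 50 mM HEPES pH 7.5, 0.0015% Brij-35, 5 mM MgCl2, 1 mM MnCl2, 2 mM DTT. Enzyme preincubated with compound 10 min at room temperature, then 1.5 μM peptide 8 and 37 μM ATP for 40 min. Inhibition from conversion % relative to DMSO and no-enzyme controls; 10-point IC50.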

[3] = system: TNFα production in human whole blood; test: LPS induced TNFα production in human whole blood; assay type: cell-based; details: 1 ug/mL LPS, 20 hours
Procedure: as §1, §2

[4] = system: TNFα production in human white blood cells (hWBC); test: LPS induced TNFα production in hWBC; assay type: cell-based; details: 1 ug/mL LPS, 20 hours
Procedure: as §1, §2

SMILES | IC50 [1] [µM] | IC50 [2] [µM] | IC50 [3] [µM] | IC50 [4] [µM]
N#Cc1ccc2ncnc(N[C@H]3CC[C@H](N4CCOCC4)CC3)c2c1 [Compound I-3, 4-(((1r,4r)-4-morpholinocyclohexyl)amino)quinazoline-6-carbonitrile] | 0.25 to 1 | ≤ 5 | ≤ 0.25 | 0.25 to 1
N#Cc1ccc2ncnc(N[C@H]3CC[C@H](N4CCC5(CC4)CC5)CC3)c2c1 [Compound I-7, 4-(((1r,4r)-4-(6-azaspiro[2.5]octan-6-yl)cyclohexyl)amino)-quinazoline-6-carbonitrile] | 0.25 to 1 | ≤ 5 | ≤ 0.25 | 1 to 10
